# Laboratory results: patent publication US10231954B2, “Neurodegenerative therapies” (LYTIX BIOPHARMA AS, priority 2014, dated 2019)
# Legend:
# MLK3 = MLK3 (Homo sapiens, UniProt Q16584); assay: Kinase profiling MLK3; type: biochemical
# Description: (§1) Any value less that 25 is considered to be highly significant inhibition.
# TAK1 = molecular target: T1, TAK1 (Homo sapiens, UniProt O43318); assay: Kinase profiling TAK1; type: biochemical
# T1 sequence (O43318 1-303 limits assumed): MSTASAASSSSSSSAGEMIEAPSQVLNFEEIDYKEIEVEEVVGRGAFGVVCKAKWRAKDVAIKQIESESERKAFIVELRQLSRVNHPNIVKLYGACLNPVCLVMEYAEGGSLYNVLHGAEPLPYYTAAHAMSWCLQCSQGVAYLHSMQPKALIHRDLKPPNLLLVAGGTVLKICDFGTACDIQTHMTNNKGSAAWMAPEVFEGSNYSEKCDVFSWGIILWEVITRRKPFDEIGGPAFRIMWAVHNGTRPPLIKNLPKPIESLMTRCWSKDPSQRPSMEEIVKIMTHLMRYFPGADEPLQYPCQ
# T1 sequence (Q15750 437-504 partner limits assumed): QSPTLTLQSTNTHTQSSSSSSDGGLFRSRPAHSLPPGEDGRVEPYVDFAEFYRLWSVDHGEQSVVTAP
# Description: as §1
# CAMK1 = CAMK1 (Homo sapiens, UniProt Q14012); assay: Kinase profiling CAMK1; type: biochemical
# Description: as §1
# PKCγ = PKCγ (Homo sapiens, UniProt P05129); assay: Kinase profiling PKCγ; type: biochemical; settings: for residual kinase activity, PKCγ: 100 micromolar inhibitor concentration, 100 is no change
# Description: as §1
# PDK1 = molecular target: T2, PDK1 (Homo sapiens, UniProt O15530); assay: Kinase profiling PDK1; type: biochemical
# T2 sequence (O15530 1-556): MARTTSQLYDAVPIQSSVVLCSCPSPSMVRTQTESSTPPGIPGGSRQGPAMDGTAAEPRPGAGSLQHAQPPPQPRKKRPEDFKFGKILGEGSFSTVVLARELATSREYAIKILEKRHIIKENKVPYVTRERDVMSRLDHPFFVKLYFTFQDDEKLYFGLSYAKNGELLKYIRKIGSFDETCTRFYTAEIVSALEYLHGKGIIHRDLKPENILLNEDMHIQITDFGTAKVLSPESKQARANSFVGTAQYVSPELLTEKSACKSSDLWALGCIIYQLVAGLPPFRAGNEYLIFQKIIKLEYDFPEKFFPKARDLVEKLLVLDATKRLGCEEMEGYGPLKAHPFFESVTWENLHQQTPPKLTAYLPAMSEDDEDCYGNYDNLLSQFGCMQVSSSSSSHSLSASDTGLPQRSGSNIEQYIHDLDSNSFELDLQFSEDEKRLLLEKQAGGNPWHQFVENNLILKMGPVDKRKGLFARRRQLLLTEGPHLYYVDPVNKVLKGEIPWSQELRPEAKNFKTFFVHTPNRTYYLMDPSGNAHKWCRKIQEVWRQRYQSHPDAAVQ
# Description: as §1
# ERK2 = ERK2 (Homo sapiens, UniProt P28482); assay: Kinase profiling ERK2; type: biochemical; settings: for residual kinase activity, ERK2: 100 micromolar inhibitor concentration, 100 is no change
# Sequence of ERK2 (P28482 whole entry, species assumed): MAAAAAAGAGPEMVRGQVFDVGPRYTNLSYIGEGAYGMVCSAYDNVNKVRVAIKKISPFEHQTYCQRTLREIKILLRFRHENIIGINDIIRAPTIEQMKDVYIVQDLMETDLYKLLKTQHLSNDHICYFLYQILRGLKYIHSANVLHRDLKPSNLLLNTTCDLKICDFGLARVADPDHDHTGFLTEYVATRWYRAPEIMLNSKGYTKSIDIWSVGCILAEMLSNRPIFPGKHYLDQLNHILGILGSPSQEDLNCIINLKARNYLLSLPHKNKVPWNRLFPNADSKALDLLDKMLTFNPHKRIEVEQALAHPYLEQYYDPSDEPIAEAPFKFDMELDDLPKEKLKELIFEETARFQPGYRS
# Description: as §1
# PLK1 = PLK1 (Homo sapiens, UniProt P53350); assay: Kinase profiling PLK1; type: biochemical
# Description: as §1
# MKK6 = molecular target: T3, MKK6 (Homo sapiens, UniProt P52564); assay: Kinase profiling MKK6; type: biochemical; settings: for residual kinase activity, MKK6: 100 micromolar inhibitor concentration, 100 is no change
# T3 sequence (P52564 1-334): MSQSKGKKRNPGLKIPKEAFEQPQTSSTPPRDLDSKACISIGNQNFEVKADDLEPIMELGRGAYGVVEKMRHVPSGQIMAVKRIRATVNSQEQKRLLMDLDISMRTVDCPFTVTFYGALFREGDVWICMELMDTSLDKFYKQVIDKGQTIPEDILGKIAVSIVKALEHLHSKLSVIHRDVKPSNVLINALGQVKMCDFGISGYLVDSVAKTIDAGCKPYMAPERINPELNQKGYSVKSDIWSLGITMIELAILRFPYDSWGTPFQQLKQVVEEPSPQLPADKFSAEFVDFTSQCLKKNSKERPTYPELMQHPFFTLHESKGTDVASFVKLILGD
# Description: as §1
# p38d MAPK = molecular target: T4, p38d MAPK (Homo sapiens, UniProt O15264); assay: Kinase profiling p38d MAPK; type: biochemical; settings: for residual kinase activity, p38d MAPK: 100 micromolar inhibitor concentration, 100 is no change
# T4 sequence (O15264 1-365): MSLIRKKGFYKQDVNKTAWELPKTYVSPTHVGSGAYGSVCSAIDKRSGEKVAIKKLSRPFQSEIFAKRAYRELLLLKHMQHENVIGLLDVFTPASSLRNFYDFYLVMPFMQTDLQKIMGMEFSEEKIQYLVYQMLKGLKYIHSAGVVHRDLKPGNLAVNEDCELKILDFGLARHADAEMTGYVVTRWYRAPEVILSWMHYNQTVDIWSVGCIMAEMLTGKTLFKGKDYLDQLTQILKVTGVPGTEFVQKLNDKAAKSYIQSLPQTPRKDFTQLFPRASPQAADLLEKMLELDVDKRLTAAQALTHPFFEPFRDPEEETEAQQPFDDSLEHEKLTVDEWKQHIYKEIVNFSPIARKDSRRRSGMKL
# Description: as §1
# NEK6 = NEK6 (Homo sapiens, UniProt Q9HC98); assay: Kinase profiling NEK6; type: biochemical
# Description: as §1
# HIPK2 = HIPK2 (Homo sapiens, UniProt Q9H2X6); assay: Kinase profiling HIPK2; type: biochemical
# Description: as §1
# PKBa = PKBa (Homo sapiens, UniProt P31749); assay: Kinase profiling PKBa; type: biochemical
# Sequence of PKBa (P31749 whole entry): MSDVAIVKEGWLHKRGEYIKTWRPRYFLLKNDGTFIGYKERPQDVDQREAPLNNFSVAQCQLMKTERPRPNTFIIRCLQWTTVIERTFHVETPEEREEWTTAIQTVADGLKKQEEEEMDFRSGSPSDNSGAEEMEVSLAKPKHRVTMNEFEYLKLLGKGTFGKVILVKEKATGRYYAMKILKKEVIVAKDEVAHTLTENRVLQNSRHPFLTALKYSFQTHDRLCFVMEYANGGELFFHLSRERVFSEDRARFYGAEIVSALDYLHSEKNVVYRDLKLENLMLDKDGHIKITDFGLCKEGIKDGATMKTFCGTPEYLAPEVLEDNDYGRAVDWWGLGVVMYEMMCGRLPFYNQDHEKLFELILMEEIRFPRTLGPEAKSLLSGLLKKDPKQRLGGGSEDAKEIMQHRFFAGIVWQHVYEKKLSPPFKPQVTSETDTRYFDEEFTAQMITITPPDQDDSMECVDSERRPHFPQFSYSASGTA
# Description: as §1
# TrkA = TrkA (Homo sapiens, UniProt P04629); assay: Kinase profiling TrkA; type: biochemical
# Description: as §1
# MSK1 = MSK1 (Homo sapiens, UniProt O75582); assay: Kinase profiling MSK1; type: biochemical
# Description: as §1
# S6K1 = S6K1 (Homo sapiens, UniProt P23443); assay: Kinase profiling S6K1; type: biochemical
# Sequence of S6K1 (P23443 whole entry, species assumed): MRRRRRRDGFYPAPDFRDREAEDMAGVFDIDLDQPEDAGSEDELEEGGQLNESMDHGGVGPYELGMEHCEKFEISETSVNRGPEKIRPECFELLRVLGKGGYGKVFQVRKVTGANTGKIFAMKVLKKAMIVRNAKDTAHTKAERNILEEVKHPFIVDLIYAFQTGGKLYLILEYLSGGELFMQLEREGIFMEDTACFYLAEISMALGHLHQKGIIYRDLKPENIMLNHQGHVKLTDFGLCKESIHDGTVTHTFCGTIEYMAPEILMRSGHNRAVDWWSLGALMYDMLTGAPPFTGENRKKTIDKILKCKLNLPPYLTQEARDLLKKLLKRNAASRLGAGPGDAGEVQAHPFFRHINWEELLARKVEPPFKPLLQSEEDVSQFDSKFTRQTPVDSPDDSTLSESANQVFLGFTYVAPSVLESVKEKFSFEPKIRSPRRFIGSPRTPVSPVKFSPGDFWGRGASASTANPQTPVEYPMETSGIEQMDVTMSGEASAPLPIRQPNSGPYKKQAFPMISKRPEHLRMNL
# Description: as §1
# PIM1 = PIM1 (Homo sapiens, UniProt P11309); assay: Kinase profiling PIM1; type: biochemical
# Sequence of PIM1 (P11309 whole entry, species assumed): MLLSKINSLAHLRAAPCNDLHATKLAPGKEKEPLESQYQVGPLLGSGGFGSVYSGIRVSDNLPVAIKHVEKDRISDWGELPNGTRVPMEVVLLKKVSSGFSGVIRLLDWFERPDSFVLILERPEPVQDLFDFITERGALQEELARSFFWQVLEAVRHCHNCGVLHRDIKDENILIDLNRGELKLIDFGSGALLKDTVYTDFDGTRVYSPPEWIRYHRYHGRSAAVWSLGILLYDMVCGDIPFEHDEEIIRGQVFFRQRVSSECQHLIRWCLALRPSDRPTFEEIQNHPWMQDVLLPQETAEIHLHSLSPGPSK
# Description: as §1
# SRPK1 = SRPK1 (Homo sapiens, UniProt Q96SB4); assay: Kinase profiling SRPK1; type: biochemical
# Sequence of SRPK1 (Q96SB4 whole entry, species assumed): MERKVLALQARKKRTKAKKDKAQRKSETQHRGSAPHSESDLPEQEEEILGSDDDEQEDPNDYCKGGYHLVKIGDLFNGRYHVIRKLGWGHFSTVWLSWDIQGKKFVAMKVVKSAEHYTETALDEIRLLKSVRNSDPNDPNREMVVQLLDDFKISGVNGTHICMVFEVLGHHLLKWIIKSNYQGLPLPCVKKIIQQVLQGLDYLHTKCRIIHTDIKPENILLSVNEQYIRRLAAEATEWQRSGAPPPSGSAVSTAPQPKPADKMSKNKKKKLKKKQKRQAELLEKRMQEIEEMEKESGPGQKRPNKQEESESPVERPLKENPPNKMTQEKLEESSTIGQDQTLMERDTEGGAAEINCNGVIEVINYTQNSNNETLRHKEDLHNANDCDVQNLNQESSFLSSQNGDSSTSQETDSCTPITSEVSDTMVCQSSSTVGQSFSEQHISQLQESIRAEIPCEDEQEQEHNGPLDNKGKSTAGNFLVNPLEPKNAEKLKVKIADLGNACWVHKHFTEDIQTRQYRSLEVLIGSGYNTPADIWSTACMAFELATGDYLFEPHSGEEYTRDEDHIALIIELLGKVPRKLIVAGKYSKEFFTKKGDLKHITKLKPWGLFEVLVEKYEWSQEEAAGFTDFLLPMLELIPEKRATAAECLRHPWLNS
# Description: as §1
# JNK1 = JNK1 (Homo sapiens, UniProt P45983); assay: Kinase profiling JNK1; type: biochemical
# Sequence of JNK1 (P45983 whole entry, species assumed): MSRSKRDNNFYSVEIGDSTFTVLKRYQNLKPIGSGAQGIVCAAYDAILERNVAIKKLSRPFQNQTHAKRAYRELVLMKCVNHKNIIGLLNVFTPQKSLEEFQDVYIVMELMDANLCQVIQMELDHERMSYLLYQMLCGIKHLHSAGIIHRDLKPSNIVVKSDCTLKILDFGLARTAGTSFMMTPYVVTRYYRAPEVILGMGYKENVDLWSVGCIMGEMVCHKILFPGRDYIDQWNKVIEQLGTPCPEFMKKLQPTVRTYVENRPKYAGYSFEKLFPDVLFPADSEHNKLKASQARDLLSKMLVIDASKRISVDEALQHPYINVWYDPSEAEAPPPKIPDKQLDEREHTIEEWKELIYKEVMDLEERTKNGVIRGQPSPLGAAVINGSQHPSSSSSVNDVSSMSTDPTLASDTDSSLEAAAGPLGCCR
# Description: as §1
# JNK2 = JNK2 (Homo sapiens, UniProt P45984); assay: Kinase profiling JNK2; type: biochemical; settings: for residual kinase activity, JNK2: 100 micromolar inhibitor concentration, 100 is no change
# Sequence of JNK2 (P45984 whole entry, species assumed): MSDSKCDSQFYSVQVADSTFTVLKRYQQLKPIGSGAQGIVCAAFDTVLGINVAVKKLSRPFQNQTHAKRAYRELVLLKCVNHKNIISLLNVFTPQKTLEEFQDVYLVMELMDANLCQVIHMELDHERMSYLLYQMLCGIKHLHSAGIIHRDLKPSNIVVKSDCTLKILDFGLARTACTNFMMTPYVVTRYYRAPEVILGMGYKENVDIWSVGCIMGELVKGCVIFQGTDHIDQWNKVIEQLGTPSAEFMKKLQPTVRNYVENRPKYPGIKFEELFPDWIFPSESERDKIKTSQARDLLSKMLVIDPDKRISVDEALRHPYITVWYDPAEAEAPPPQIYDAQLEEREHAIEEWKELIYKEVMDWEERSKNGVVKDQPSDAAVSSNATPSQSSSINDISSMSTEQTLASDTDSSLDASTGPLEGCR
# Description: as §1
# JAK2 = JAK2 (Homo sapiens, UniProt O60674); assay: Kinase profiling JAK2; type: biochemical
# Description: as §1
# HER4 = HER4 (Homo sapiens, UniProt Q15303); assay: Kinase profiling HER4; type: biochemical
# Description: as §1
# AMPK (hum) = assay: Kinase profiling AMPK (hum); type: biochemical, human; settings: 100 micromolar inhibitor; 100 = no change
# Description: as §1
# [1] = 100 micromolar inhibitor concentration, 100 is no change
# [2] = 100 micromolar inhibitor, 100 = no change
# Sequence of MLK3 (Q16584 whole entry, species assumed): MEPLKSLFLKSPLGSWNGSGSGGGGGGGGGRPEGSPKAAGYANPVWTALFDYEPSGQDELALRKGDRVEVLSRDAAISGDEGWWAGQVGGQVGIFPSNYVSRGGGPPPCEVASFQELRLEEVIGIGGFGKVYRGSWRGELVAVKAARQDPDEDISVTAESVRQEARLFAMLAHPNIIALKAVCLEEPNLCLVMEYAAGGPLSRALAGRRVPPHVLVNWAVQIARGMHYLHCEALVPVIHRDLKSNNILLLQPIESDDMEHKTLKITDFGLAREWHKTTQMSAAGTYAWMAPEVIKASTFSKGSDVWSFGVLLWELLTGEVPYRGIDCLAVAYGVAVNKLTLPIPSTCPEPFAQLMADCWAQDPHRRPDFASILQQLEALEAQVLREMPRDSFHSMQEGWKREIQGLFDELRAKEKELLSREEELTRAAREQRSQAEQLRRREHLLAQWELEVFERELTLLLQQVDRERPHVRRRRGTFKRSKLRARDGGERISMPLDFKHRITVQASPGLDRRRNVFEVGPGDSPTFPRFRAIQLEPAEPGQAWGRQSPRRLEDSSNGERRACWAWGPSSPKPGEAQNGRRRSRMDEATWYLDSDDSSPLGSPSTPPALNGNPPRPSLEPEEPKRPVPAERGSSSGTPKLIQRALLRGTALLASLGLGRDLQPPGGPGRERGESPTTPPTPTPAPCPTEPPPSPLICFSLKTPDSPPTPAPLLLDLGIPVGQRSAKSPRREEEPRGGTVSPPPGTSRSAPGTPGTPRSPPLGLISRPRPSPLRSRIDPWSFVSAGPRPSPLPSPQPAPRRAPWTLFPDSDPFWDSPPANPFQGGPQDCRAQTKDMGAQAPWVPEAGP
smiles,measurement,setting,value
"CC(=O)Nc1nc2cc(O)ccc2s1 [Compound 01-66, N-(5-hydroxybenzo[d]thiazol-2-yl)acetamide]",remaining activity at 100 µM,"MLK3; read-out: residual kinase activity, MLK3",41%
same,remaining activity at 100 µM,"TAK1; read-out: residual kinase activity, TAK1",30%
same,remaining activity at 100 µM,"CAMK1; read-out: residual kinase activity, CAMK1",69%
same,remaining activity at 100 µM,"PKCγ; read-out: residual kinase activity, PKCγ",99%
same,remaining activity at 100 µM,"PDK1; read-out: residual kinase activity, PDK1",69%
same,remaining activity at 100 µM,"ERK2; read-out: residual kinase activity, ERK2",104%
same,remaining activity at 100 µM,"PLK1; read-out: residual kinase activity, PLK1",103%
same,remaining activity at 100 µM,"MKK6; read-out: residual kinase activity, MKK6",70%
same,remaining activity at 100 µM,"p38d MAPK; read-out: residual kinase activity, p38d MAPK",70%
same,remaining activity at 100 µM,"NEK6; read-out: residual kinase activity, NEK6",82%
same,remaining activity at 100 µM,"HIPK2; read-out: residual kinase activity, HIPK2",20%
same,remaining activity at 100 µM,"PKBa; read-out: residual kinase activity, PKBa",87%
same,remaining activity at 100 µM,"TrkA; read-out: residual kinase activity, TrkA",57%
same,remaining activity at 100 µM,"MSK1; read-out: residual kinase activity, MSK1",62%
same,remaining activity at 100 µM,"S6K1; read-out: residual kinase activity, S6K1",54%
same,remaining activity at 100 µM,"PIM1; read-out: residual kinase activity, PIM1",12%
same,remaining activity at 100 µM,"SRPK1; read-out: residual kinase activity, SRPK1",59%
same,remaining activity at 100 µM,"JNK1; read-out: residual kinase activity, JNK1",53%
same,remaining activity at 100 µM,"JNK2; read-out: residual kinase activity, JNK2",63%
same,remaining activity at 100 µM,"JAK2; read-out: residual kinase activity, JAK2",65%
same,remaining activity at 100 µM,"HER4; read-out: residual kinase activity, HER4",40%
CC(=O)Nc1cccc(C(=O)Nc2nc3ccc(O)cc3s2)c1 [Compound 03-58],"residual kinase activity, PKCγ",PKCγ,86
same,"residual kinase activity, PDK1",PDK1; [1],96
same,"residual kinase activity, ERK2",ERK2,104
same,"residual kinase activity, MKK6",MKK6,103
same,"residual kinase activity, p38d MAPK",p38d MAPK,75
same,"residual kinase activity, PKBa",PKBa; [1],92
same,"residual kinase activity, S6K1",S6K1; [1],9
same,"residual kinase activity, JNK1",JNK1; [1],80
same,"residual kinase activity, JNK2",JNK2,99
CC(=O)NC(C)C(=O)Nc1nc2ccc(C(F)(F)F)cc2s1 (centres unmarked) [Compound 03-80],"residual kinase activity, PKCγ",PKCγ,87
same,"residual kinase activity, PDK1",PDK1; [1],86
same,"residual kinase activity, ERK2",ERK2,101
same,"residual kinase activity, MKK6",MKK6,115
same,"residual kinase activity, p38d MAPK",p38d MAPK,102
same,"residual kinase activity, PKBa",PKBa; [1],105
same,"residual kinase activity, S6K1",S6K1; [1],97
same,"residual kinase activity, JNK1",JNK1; [1],86
same,"residual kinase activity, JNK2",JNK2,87
CC(=O)Nc1ccccc1C(=O)Nc1nc2ccc(O)cc2s1 [Compound 08-39],"residual kinase activity, PKCγ",PKCγ,44
same,"residual kinase activity, PDK1",PDK1; [1],66
same,"residual kinase activity, ERK2",ERK2,68
same,"residual kinase activity, MKK6",MKK6,96
same,"residual kinase activity, p38d MAPK",p38d MAPK,67
same,"residual kinase activity, PKBa",PKBa; [1],84
same,"residual kinase activity, S6K1",S6K1; [1],12
same,"residual kinase activity, JNK1",JNK1; [1],92
same,"residual kinase activity, JNK2",JNK2,93
COc1cccc(NC(=O)Nc2nc3cc(O)ccc3s2)c1 [Compound 13-62],"residual kinase activity, MLK3",MLK3; [2],13
same,"residual kinase activity, AMPK (hum)",AMPK (hum),23
same,"residual kinase activity, TAK1",TAK1; [2],11
same,"residual kinase activity, CAMK1",CAMK1; [2],8
same,"residual kinase activity, PDK1",PDK1; [2],77
same,"residual kinase activity, PLK1",PLK1; [2],98
same,"residual kinase activity, NEK6",NEK6; [2],104
same,"residual kinase activity, HIPK2",HIPK2; [2],23
same,"residual kinase activity, PKBa",PKBa; [2],66
same,"residual kinase activity, TrkA",TrkA; [2],9
same,"residual kinase activity, MSK1",MSK1; [2],41
same,"residual kinase activity, S6K1",S6K1; [2],22
same,"residual kinase activity, PIM1",PIM1; [2],14
same,"residual kinase activity, SRPK1",SRPK1; [2],3
same,"residual kinase activity, JNK1",JNK1; [2],114
same,"residual kinase activity, JAK2",JAK2; [2],31
same,"residual kinase activity, HER4",HER4; [2],13
COc1ccc2sc(NC(=O)c3ccc(NC(C)=O)cc3)nc2c1 [MS:LY-2-77],"residual kinase activity, PKCγ",PKCγ,94
same,"residual kinase activity, PDK1",PDK1; [1],103
same,"residual kinase activity, ERK2",ERK2,105
same,"residual kinase activity, MKK6",MKK6,111
same,"residual kinase activity, p38d MAPK",p38d MAPK,98
same,"residual kinase activity, PKBa",PKBa; [1],89
same,"residual kinase activity, S6K1",S6K1; [1],94
same,"residual kinase activity, JNK1",JNK1; [1],104
same,"residual kinase activity, JNK2",JNK2,99
COc1ccc2sc(NC(=O)c3cccc(NC(C)=O)c3)nc2c1 [MS:LY-2-85],"residual kinase activity, PKCγ",PKCγ,80
same,"residual kinase activity, PDK1",PDK1; [1],80
same,"residual kinase activity, ERK2",ERK2,98
same,"residual kinase activity, MKK6",MKK6,99
same,"residual kinase activity, p38d MAPK",p38d MAPK,72
same,"residual kinase activity, PKBa",PKBa; [1],90
same,"residual kinase activity, S6K1",S6K1; [1],50
same,"residual kinase activity, JNK1",JNK1; [1],97
same,"residual kinase activity, JNK2",JNK2,100
CC(=O)Nc1ccc(C(=O)Nc2nc3cc(O)ccc3s2)cc1 [MS:LY-2-87],"residual kinase activity, PKCγ",PKCγ,74
same,"residual kinase activity, PDK1",PDK1; [1],69
same,"residual kinase activity, ERK2",ERK2,81
same,"residual kinase activity, MKK6",MKK6,107
same,"residual kinase activity, p38d MAPK",p38d MAPK,75
same,"residual kinase activity, PKBa",PKBa; [1],86
same,"residual kinase activity, S6K1",S6K1; [1],39
same,"residual kinase activity, JNK1",JNK1; [1],105
same,"residual kinase activity, JNK2",JNK2,105
CC(=O)Nc1cccc(C(=O)Nc2nc3cc(O)ccc3s2)c1 [MS:LY-2-89],"residual kinase activity, PKCγ",PKCγ,63
same,"residual kinase activity, PDK1",PDK1; [1],44
same,"residual kinase activity, ERK2",ERK2,68
same,"residual kinase activity, MKK6",MKK6,98
same,"residual kinase activity, p38d MAPK",p38d MAPK,70
same,"residual kinase activity, PKBa",PKBa; [1],82
same,"residual kinase activity, S6K1",S6K1; [1],14
same,"residual kinase activity, JNK1",JNK1; [1],68
same,"residual kinase activity, JNK2",JNK2,93
